# According to BindingDB's records for patent US20240109853 (Shanghai Yao Yuan Biotechnology Co., 2024):
# Where “and” joins values, the source holds several entries; their conditions need not be identical. Equal entries are not always repeated.
# Target: Alpha-protein kinase 1 (Homo sapiens, UniProt Q96QP1)
# Assay: ALPK1 In Vitro Kinase Assay
# Protocol: ALPK1 kinase activity was measured in an in vitro assay using ADP-Heptose as the ALPK1 ligand and activator of its kinase activity and TIFA protein as the ALPK1 phosphorylation substrate. Since phosphorylated TIFA proteins oligomerize, Homogeneous Time-Resolved Fluorescence (HTRF) was used to measure protein: protein interaction between HA-tagged TIFA proteins as an indicator of TIFA phosphorylation. In brief, dose-response studies were performed with […] in 384-well assay plates. Each well contained 0.1 mg TIFA, ALPK1 (2 nM final concentration in reaction mixture) and kinase buffer (100 mM of HEPES pH 7.4, 4 mM DTT, 40 mM MgCl2, 20 mM of β-Glycerol phosphate disodium salt, 0.4 mM of Na3VO4, 0.16 mg/mL). Titrations of the test compounds were prepared in dimethylsulphoxide (DMSO). The reaction was initiated by addition of ATP and ADP-Heptose.
# Chain of Alpha-protein kinase 1 (Q96QP1 whole entry): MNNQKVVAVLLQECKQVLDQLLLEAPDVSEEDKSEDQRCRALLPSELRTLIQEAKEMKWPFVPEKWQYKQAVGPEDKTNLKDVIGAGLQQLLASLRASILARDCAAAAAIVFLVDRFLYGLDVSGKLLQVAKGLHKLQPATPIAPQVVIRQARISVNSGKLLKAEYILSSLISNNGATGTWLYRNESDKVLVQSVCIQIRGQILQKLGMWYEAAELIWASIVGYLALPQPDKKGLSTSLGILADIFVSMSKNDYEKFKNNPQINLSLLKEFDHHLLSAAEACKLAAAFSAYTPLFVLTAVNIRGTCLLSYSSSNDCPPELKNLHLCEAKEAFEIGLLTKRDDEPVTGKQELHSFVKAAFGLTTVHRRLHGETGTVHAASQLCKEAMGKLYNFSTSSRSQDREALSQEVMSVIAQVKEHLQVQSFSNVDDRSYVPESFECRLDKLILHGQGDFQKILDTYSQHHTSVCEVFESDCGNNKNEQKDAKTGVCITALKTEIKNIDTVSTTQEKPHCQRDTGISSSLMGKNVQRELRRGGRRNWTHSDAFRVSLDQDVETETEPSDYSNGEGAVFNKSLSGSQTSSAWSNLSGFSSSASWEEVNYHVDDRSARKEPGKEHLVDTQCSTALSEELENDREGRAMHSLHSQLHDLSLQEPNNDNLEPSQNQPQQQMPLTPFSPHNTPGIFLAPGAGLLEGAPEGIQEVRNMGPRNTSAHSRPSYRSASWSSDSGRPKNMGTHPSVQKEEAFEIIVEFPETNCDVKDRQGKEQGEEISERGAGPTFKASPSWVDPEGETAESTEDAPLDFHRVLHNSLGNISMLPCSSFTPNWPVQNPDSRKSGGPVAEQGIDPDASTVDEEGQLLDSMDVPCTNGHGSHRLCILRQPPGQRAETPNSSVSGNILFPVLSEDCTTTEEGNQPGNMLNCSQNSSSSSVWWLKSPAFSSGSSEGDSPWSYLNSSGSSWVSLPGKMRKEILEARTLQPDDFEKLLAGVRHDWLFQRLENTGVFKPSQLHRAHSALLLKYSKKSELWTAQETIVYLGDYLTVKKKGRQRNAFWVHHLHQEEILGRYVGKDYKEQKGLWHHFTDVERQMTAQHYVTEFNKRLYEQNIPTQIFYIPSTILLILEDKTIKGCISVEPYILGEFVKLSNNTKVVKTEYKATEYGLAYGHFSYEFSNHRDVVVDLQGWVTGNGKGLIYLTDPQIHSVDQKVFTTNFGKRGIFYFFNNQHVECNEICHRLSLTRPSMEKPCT
row,SMILES,IC50
1,"CC(C)(c1ccc(Br)cc1)c1csc(NC(=O)NCc2ccc(C3CCNCC3)c(F)c2)n1 [US20240109853, Compound A222]",56 nM
2,"C#C[C@](C)(c1ccc(Cl)cc1)c1csc(NC(=O)NCC(C)O)n1 (some centres not stated) [US20240109853, Compound A316]",421 nM and 534 nM
3,"C#C[C@](C)(c1ccc(Cl)cc1)c1nc(NC(=O)NCCO)sc1Cl [US20240109853, Compound A248]",1290 nM
4,"C#CC(C)(c1ccc(Cl)cc1)c1csc(NC(=O)N2CC(N)C2)n1 (configuration not stated) [US20240109853, Compound A275]",503 nM and 246 nM
5,"C#C[C@@](C)(c1ccc(Cl)cc1)c1csc(NC(=O)NC(C)CO)n1 (some centres not stated) [US20240109853, Compound A312]",545 nM and 614 nM
6,"C#C[C@@](C)(c1ccc(Cl)cc1)c1csc(NC(=O)NCC(C)O)n1 (some centres not stated) [US20240109853, Compound A317]",85 nM and 156 nM
7,"COc1ccc(C(C)(C)c2csc(NC(=O)c3ccc(N4CC5CC(C4)N5)cc3)n2)cc1 [US20240109853, Compound B048]",73 nM
8,"C#C[C@@](C)(c1ccc(Cl)cc1)c1nc(NC(=O)NCCO)sc1Cl [US20240109853, Compound A247]",408 nM
9,"CC(C)(c1ccc(Br)cc1)c1csc(NC(=O)NCc2ccc(N3CCNCC3)c(Br)c2)n1 [US20240109853, Compound A097]",87 nM
10,"C#C[C@](C)(c1ccc(Cl)cc1)c1csc(NC(=O)NC(C)CO)n1 (some centres not stated) [US20240109853, Compound A314]",261 nM and 81 nM
11,"COc1ccc(C(C)(C)c2csc(NC(=O)NCc3cc(F)c(C4CCNCC4)c(F)c3)n2)cc1 [US20240109853, Compound A151]",43 nM
12,"C#CC(C)(c1ccc(Cl)cc1)c1csc(NC(=N)N)n1 (configuration not stated) [US20240109853, Compound A276]",345 nM
